Source: patent publication US9133206B2, “Benzodiazepine and pyridodiazepine derivatives” (AbbVie Inc., priority 2010, dated 2015)
pEC50: −log10 of the molar value.

Legend:
[1] = tested on: mouse model of multiple sclerosis; conditions: in vivo administration; cited from earlier work
[2] = tested on: patients with mild-to-moderate Alzheimer's disease; conditions: 20 mg three times a day (60 mg/day); cited from earlier work
[3] = tested on: SK-N-SH human neuroblastoma cells; assay: Serum Deprivation/JC-1 Mitochondrial Membrane Potential (MMP) Assay; type: cell-based; conditions: Homo sapiens; for pEC50 / Emax: SK-N-SH; for pEC50: 18 h, serum deprivation ~18 hours, JC-1 ratio normalized to peak value for 10 μM dimebolin, single curve fit to mean data of n=2-3; for Emax: percent maximal intensity in JC-1 ratio normalized to peak value for 10 μM dimebolin, read-out: JC-1 max %; for Emax / activation at 3 µM: serum deprivation; for activation at 3 µM: single dose 3 μM, JC-1 ratio normalized to peak value for 10 μM dimebolin (n=2-4), read-out: JC-1 max % (@ 3 μM)
Method in brief: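 SK-N-SH cells serum-deprived ~18 h with compound, then stained with JC-1 for 40 min at 37 °C; red (560/595 nm) to green (485/535 nm) ratio reports membrane potential. Response normalized to peak from 10 μM dimebolin; EC50 from fit to mean of n=2–3, or single-dose 3 μM; DMSO ≤1%.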

SMILES | pEC50 [3] | Emax [3] | other results
O=C1C=C(c2ccccc2)C(=O)N1c1cccc(Cl)c1 [1-(3-chlorophenyl)-3-phenyl-pyrrole-2,5-dione] |  |  | development of the disease [1]: significantly prevented the development of the disease
Cc1ccc2c(c1)c1c(n2CCc2ccc(C)nc2)CCN(C)C1 [dimebolin] |  |  | clinical course of disease (ADAS-Cog, improvement over baseline) [2]: significant improvement in the clinical course of disease
Fc1ccc(CN2CCN3c4ncccc4N(CC4CCC4)CCC3C2)cc1 (stereo not drawn) [Example 65, 5-(cyclobutylmethyl)-9-(4-fluorobenzyl)-5,6,7,7a,8,9,10,11-octahydropyrazino[1,2-d]pyrido[3,2-b][1,4]diazepine] | 5.34 | 133% | 
Brc1ccc(CN2Cc3ccccc3N3CCN(Cc4ccccc4)CC3C2)cn1 (stereo not drawn) [Example 39, 3-benzyl-6-[(6-bromopyridin-3-yl)methyl]-1,2,3,4,4a,5,6,7-octahydropyrazino[1,2-a][1,4]benzodiazepine] | 5.43 | 200% | 
O=C(c1cscn1)N1Cc2ccccc2N2CCN(Cc3ccccc3)CC2C1 (stereo not drawn) [Example 88, (3-benzyl-1,2,3,4,4a,5-hexahydropyrazino[1,2-a][1,4]benzodiazepin-6(7H)-yl)(1,3-thiazol-4-yl)methanone] |  |  | activation at 3 µM [3]: 139%
CN1CCN(CC(=O)N2Cc3ccccc3N3CCN(Cc4ccccc4)CC3C2)CC1 (stereo not drawn) [Example 103, 1-(3-benzyl-1,2,3,4,4a,5-hexahydropyrazino[1,2-a][1,4]benzodiazepin-6(7H)-yl)-2-(4-methylpiperazin-1-yl)ethanone] |  |  | activation at 3 µM [3]: 42%
O=C1C2CN(Cc3ccc(F)cc3)CCN2c2ccccc2CN1Cc1ccc(Br)cc1 (stereo not drawn) [Example 73, 6-(4-bromobenzyl)-3-(4-fluorobenzyl)-2,3,4,4a,6,7-hexahydropyrazino[1,2-a][1,4]benzodiazepin-5(1H)-one] | 5.37 | 229% | 
Cc1ccc(CN2Cc3ccccc3N3CCN(Cc4ccccc4)CC3C2)cn1 (stereo not drawn) [Example 32, 3-benzyl-6-[(6-methylpyridin-3-yl)methyl]-1,2,3,4,4a,5,6,7-octahydropyrazino[1,2-a][1,4]benzodiazepine] | 5.70 | 140% | 
